In patent US7267977B2, “Peripheral-type benzodiazepine receptor: a tool for detection, diagnosis, prognosis, and treatment of cancer” (Georgetown University, priority 1998, dated 2007):

Key:
PBR [1] = target: T1, PBR (Homo sapiens, UniProt P30536); assay: Fluorescent microscopy with compound 4 fluorescent PBR ligand, cultured cells; format: cell-based; design: endogenous in cells; host or cells: MDA-231, MCF-7 and MCF-7ADR (ADR) human breast cancer cells, whole cells or isolated nuclei; details: MDA-231 cells, 100 uM competitor, 1 uM compound 4, 45 min at 37° C.
Experimental: Fluorescent Microscopy with the compound 4 fluorescent PBR Ligand—MA-10, MDA-231, MCF-7, and ADR cells were grown on glass coverslips as previously described [Kozikowski et al. (1997) J. Med. Chem. 40: 2435-2439]. Cells were then washed twice with sterile PBS and incubated for 45 min with 1 uM compound 4, a fluorescent derivative of the PBR ligand FGIN-27, with or without a competing PBR ligand, FGIN-27, at a concentration of 100 uM. After the incubation period, the cells were washed with PBS and examined by fluorescent microscopy using an Olympus BH-2 fluorescence microscope.
Target sequence in this assay (P30536 2-169): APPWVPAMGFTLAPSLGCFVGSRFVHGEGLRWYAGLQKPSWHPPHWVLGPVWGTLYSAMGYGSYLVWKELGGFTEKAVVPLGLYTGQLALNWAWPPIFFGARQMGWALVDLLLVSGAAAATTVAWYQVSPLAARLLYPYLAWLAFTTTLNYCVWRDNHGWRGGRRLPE

[2] = target: T2, peripheral-type benzodiazepine receptor (PBR) (Homo sapiens, UniProt P30536); assay: [3H]PK11195 radioligand binding to whole cells (Scatchard analysis, competition); details: 50 μg protein, [3H]PK11195, Scatchard plot
T2 construct: Cells were scraped from 150 mm culture dishes into 5 ml phosphate buffered saline (PBS); endogenous in cells; host or cells: MDA-231, MCF-7 and MCF-7ADR (ADR) human breast cancer cells, whole cells or isolated nuclei
T2 sequence (P30536 2-169): as above
Experimental: (§1) Radioligand Binding Assays—Cells were scraped from 150 mm culture dishes into 5 ml phosphate buffered saline (PBS), dispersed by trituration, and centrifuged at 500×g for 15 min. Cell pellets were resuspended in PBS and assayed for protein concentration. […] Scatchard plots were analyzed by the LIGAND program [Munson, (1980) Anal. Biochem. 107:220]. […] IC50 estimation was performed using the LIGAND program (Munson, 1980, supra).

[3] = target: T2, peripheral-type benzodiazepine receptor (PBR); assay: [3H]PK11195 binding to isolated nuclei (Scatchard analysis); details: pmol/mg nuclear protein
Experimental: as §1
(§2) Nuclear Uptake of ^3H-Cholesterol—Nuclei were isolated from MDA-231, MCF-7, and as described by Elango et al (1997). […] Samples were then centrifuged at 500×g for 30 min and pellets were washed in […] ice-cold PBS. After a second centrifugation at 500×g for 30 min, 200 ul 1.0 N NaOH was then added to the pellets and incubated overnight at 37° C. After incubation, 200 ul 1.0 N HCl was added and samples were vigorously vortexed. 3 ml scintillation cocktail (Eco-Lite) was then added prior to reading radioactivity on a Wallac 1409 Liquid Scintillation Counter.

MDA-231 nuclei = assay: Nuclear uptake of 3H-cholesterol, MDA-231 nuclei; format: biochemical, human; details: -8 to -6M PK11195, MDA-231 nuclei, 60 min at 37° C.
Experimental: as §2

MCF-7 nuclei = assay: Nuclear uptake of 3H-cholesterol, MCF-7 nuclei; format: biochemical, human; details: increasing concentrations of PK11195
Experimental: as §2

MDA-231 cells = assay: BrdU cell proliferation ELISA; format: cell-based, human; details: for stimulation of MDA-231 cell proliferation: 48 h
Experimental: BrdU Cell Proliferation Assays and BrdU-labeling of MDA-231 Cells—MDA-231 cells were plated on 96-well plates (Corning) at a concentration of approximately 10,000 cells/well (24 h incubation) or approximately 5,000 cells/well (48 h incubation) in DMEM supplemented with 0.1% FBS.

PBR [4] = target: T1, PBR; assay: Compound 4 fluorescence labeling of human breast tissue biopsies; design: Paraffin embedded sections of normal breast tissue; from tissue; host or cells: human breast biopsies (normal tissue and aggressive carcinoma), Lombardi Cancer Center; details: 1000 fold excess of competitive ligand
Target sequence in this assay (P30536 whole entry): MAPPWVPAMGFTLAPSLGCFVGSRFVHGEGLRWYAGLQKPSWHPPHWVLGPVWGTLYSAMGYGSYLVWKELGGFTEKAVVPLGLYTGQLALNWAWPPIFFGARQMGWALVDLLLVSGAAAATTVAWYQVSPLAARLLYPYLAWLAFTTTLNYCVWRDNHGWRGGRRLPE
Experimental: PBR ligand binding activity was determined using the fluorescent PBR derivative compound 4 [Munson, 1980, supra]
In some samples, the hematoxylin counterstaining was omitted in order to confirm the PBR positive staining of the nuclei of breast carcinoma cells (b). […] In this experiment an FITC-coupled secondary antibody was used to localize the immunoreactive PBR protein. […] PBR ligand binding activity was also determined in the aggressive breast carcinomas using the fluorescent PBR derivative compound 4 (FIG. 10e).

displacement of compound 4 fluorescent binding (PBR [1])	Bmax ([2]; ADR (MCF-7ADR) cells) [pmol/mg protein]	Bmax ([2]; MDA-231 cells) [pmol/mg protein]	Bmax ([3]; nuclei isolated from MCF-7 cells) [pmol/mg protein]	Bmax ([3]; nuclei isolated from MDA-231 cells) [pmol/mg protein]	displacement of compound 4 fluorescence (PBR [4]; aggressive breast carcinoma biopsies)	displacement of compound 4 fluorescence (PBR [4]; normal human breast tissue)	SMILES	decrease in the amount of cholesterol uptake (MDA-231 nuclei) [%]	response of cholesterol uptake to PK11195 dose-response (MCF-7 nuclei)	effect on MDA-231 cell proliferation (MDA-231 cells; 24 h, −10 and −9M)	stimulation of MDA-231 cell proliferation (MDA-231 cells; any of the micromolar concentrations)	stimulation of MDA-231 cell proliferation (MDA-231 cells; −8M) [%]	Emax (MDA-231 cells; Homo sapiens, MDA-MB-231, 24 h, −5M, read-out: maximal stimulation of MDA-231 cell proliferation) [%]	toxicity to MDA-231 cells (MDA-231 cells; −4M)
displacement of fluorescent binding	–	–	–	–	–	–	CCCCCCN(CCCCCC)C(=O)Cc1c(-c2ccc(F)cc2)[nH]c2ccccc12 [FGIN-27]	–	–	–	–	–	–	–
–	1.3±0.23	8.7±1.4	0.4±0.2	6.9±4.8	completely displaced the fluorescence	completely displaced the fluorescence	CCC(C)N(C)C(=O)c1cc2ccccc2c(-c2ccccc2Cl)n1 (centres unmarked) [PK11195]	~20	failed to respond	no effect	no stimulation	40	40	toxic concentration
